Test results as given in PubChem BioAssay AID248 (DTP/NCI, 2004).
Where “and” joins values, the source holds several entries; their conditions need not be identical. Equal values may be shown once. Inconclusive results and toxic doses are left out. Cut-off read from the data, not from the text of the source: active = T/C of 150% or more; inactive = T/C below 125%.

Tested on: L1210 leukemia ip in BDF1 mice, survival T/C
Assay: NCI In Vivo Anticancer Drug Screen. Data for tumor model L1210 Leukemia (intraperitoneal) in B6D2F1 (BDF1) mice
Conditions: higher = longer survival
Method in brief: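 Ratio derived from survival: compound-dosed mice over vehicle-dosed mice, all bearing a transplantable tumor.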

[1] = endpoint: mean survival time, dose: 100.0 mg/kg/injection, schedule: Q04DX003 (ip), vehicle: Klucel (hydroxypropylcellulose) (HPC)
[2] = endpoint: mean survival time, dose: 200.0 mg/kg/injection, schedule: Q04DX003 (ip), vehicle: Klucel (hydroxypropylcellulose) (HPC)
[3] = endpoint: mean survival time, dose: 400.0 mg/kg/injection, schedule: Q04DX003 (ip), vehicle: Klucel (hydroxypropylcellulose) (HPC)
[4] = endpoint: mean survival time, dose: 100.0 mg/kg/injection, schedule: Q01DX001 (ip), vehicle: saline
[5] = endpoint: mean survival time, dose: 200.0 mg/kg/injection, schedule: Q01DX001 (ip), vehicle: saline
[6] = endpoint: mean survival time, dose: 400.0 mg/kg/injection, schedule: Q01DX001 (ip), vehicle: saline
[7] = endpoint: mean survival time, dose: 100.0 mg/kg/injection, schedule: Q01DX009 (ip), vehicle: Klucel (hydroxypropylcellulose) (HPC)
[8] = endpoint: mean survival time, dose: 200.0 mg/kg/injection, schedule: Q01DX009 (ip), vehicle: Klucel (hydroxypropylcellulose) (HPC)

Measured: T/C

O=C(C1CC2CCC1C2)C1CC2CCC1C2 (stereo unspecified)
inactive: endpoint: mean survival time, dose: 100.0 mg/kg/injection, schedule: Q01DX009 (ip), vehicle: saline with Tween-80 98 % of control | [1] 97 % of control | endpoint: mean survival time, dose: 200.0 mg/kg/injection, schedule: Q01DX009 (ip), vehicle: saline with Tween-80 95 % of control | [2] 100 % of control | endpoint: mean survival time, dose: 400.0 mg/kg/injection, schedule: Q01DX009 (ip), vehicle: saline with Tween-80 96 % of control | [3] 100 % of control

CCOC(Cn1ccc(=O)[nH]c1=O)OCC
inactive: endpoint: mean survival time, dose: 100.0 mg/kg/injection, schedule: Q04DX003 (ip), vehicle: saline sonified 109 % of control | endpoint: mean survival time, dose: 200.0 mg/kg/injection, schedule: Q04DX003 (ip), vehicle: saline sonified 96 % of control | endpoint: mean survival time, dose: 400.0 mg/kg/injection, schedule: Q04DX003 (ip), vehicle: saline sonified 105 % of control

CCNc1ncnc2c1c(C(N)=S)cn2C1OC(CO)C(O)C1O (stereo unspecified)
inactive: endpoint: mean survival time, dose: 12.5 mg/kg/injection, schedule: Q01DX005 (ip), vehicle: saline 111 % of control and 113 % of control | endpoint: mean survival time, dose: 12.5 mg/kg/injection, schedule: Q01DX009 (ip), vehicle: Klucel (hydroxypropylcellulose) (HPC) 109 % of control | endpoint: mean survival time, dose: 12.5 mg/kg/injection, schedule: Q01DX009 (ip), vehicle: saline 111 % of control | endpoint: mean survival time, dose: 25.0 mg/kg/injection, schedule: Q01DX005 (ip), vehicle: saline 105 % of control and 124 % of control | endpoint: mean survival time, dose: 25.0 mg/kg/injection, schedule: Q01DX009 (ip), vehicle: Klucel (hydroxypropylcellulose) (HPC) 91 % of control | endpoint: mean survival time, dose: 25.0 mg/kg/injection, schedule: Q01DX009 (ip), vehicle: saline 112 % of control

COc1cc(C)c2c(OC)ccc(OC)c2n1
inactive: [4] 94 % of control | [5] 97 % of control | [6] 103 % of control

CN(C)N=Nc1ccc(C(N)=O)cc1
inactive: endpoint: mean survival time, dose: 30.0 mg/kg/injection, schedule: Q01DX Z (ip), vehicle: other 108 % of control | endpoint: mean survival time, dose: 40.0 mg/kg/injection, schedule: Q01DX Z (ip), vehicle: other 111 % of control | endpoint: mean survival time, dose: 60.0 mg/kg/injection, schedule: Q01DX Z (ip), vehicle: other 121 % of control | endpoint: median survival time, dose: 65.0 mg/kg/injection, schedule: Q01DX001 (ip), vehicle: steriod suspending solution 100 % of control | endpoint: median survival time, dose: 65.0 mg/kg/injection, schedule: Q01DX009 (ip), vehicle: steriod suspending solution 105 % of control | endpoint: median survival time, dose: 108.0 mg/kg/injection, schedule: Q01DX001 (ip), vehicle: steriod suspending solution 100 % of control | endpoint: median survival time, dose: 180.0 mg/kg/injection, schedule: Q04DX003 (ip), vehicle: steriod suspending solution 105 % of control | endpoint: median survival time, dose: 300.0 mg/kg/injection, schedule: Q01DX001 (ip), vehicle: steriod suspending solution 100 % of control

CC(=O)N(N=Nc1ccccc1)c1cccc2ccccc12
inactive: [7] 116 % of control | [1] 108 % of control | [8] 96 % of control | [2] 109 % of control | [3] 108 % of control

O=NN(CCCl)C(=O)C1CCCCC1
inactive: endpoint: mean survival time, dose: 4.5 mg/kg/injection, schedule: Q01DX001 (ip), vehicle: carboxymethylcellulose (CMC) 110 % of control | endpoint: mean survival time, dose: 9.0 mg/kg/injection, schedule: Q01DX001 (ip), vehicle: carboxymethylcellulose (CMC) 112 % of control | endpoint: mean survival time, dose: 18.0 mg/kg/injection, schedule: Q01DX001 (ip), vehicle: carboxymethylcellulose (CMC) 113 % of control | endpoint: mean survival time, dose: 26.0 mg/kg/injection, schedule: Q01DX001 (ip), vehicle: carboxymethylcellulose (CMC) 112 % of control | endpoint: mean survival time, dose: 40.0 mg/kg/injection, schedule: Q01DX001 (ip), vehicle: carboxymethylcellulose (CMC) 108 % of control | endpoint: mean survival time, dose: 60.0 mg/kg/injection, schedule: Q01DX001 (ip), vehicle: carboxymethylcellulose (CMC) 110 % of control | endpoint: mean survival time, dose: 93.0 mg/kg/injection, schedule: Q01DX001 (ip), vehicle: carboxymethylcellulose (CMC) 113 % of control | endpoint: mean survival time, dose: 187.0 mg/kg/injection, schedule: Q01DX001 (ip), vehicle: carboxymethylcellulose (CMC) 116 % of control

COc1cc(OC)c(NC(=O)NC(C)(C)C)cc1Cl
inactive: [7] 93 % of control | [8] 95 % of control | endpoint: mean survival time, dose: 400.0 mg/kg/injection, schedule: Q01DX009 (ip), vehicle: Klucel (hydroxypropylcellulose) (HPC) 98 % of control

Cc1cc(N)c2cc(NC(=O)CCCCCCCC(=O)Nc3ccc4nc(C)cc(N)c4c3)ccc2n1
inactive: endpoint: mean survival time, dose: 20.0 mg/kg/injection, schedule: Q01DX Z (ip), vehicle: methylcellulose (MC) 93 % of control | endpoint: mean survival time, dose: 33.0 mg/kg/injection, schedule: Q01DX Z (ip), vehicle: methylcellulose (MC) 110 % of control | endpoint: mean survival time, dose: 50.0 mg/kg/injection, schedule: Q01DX Z (ip), vehicle: methylcellulose (MC) 112 % of control | endpoint: mean survival time, dose: 75.0 mg/kg/injection, schedule: Q01DX Z (ip), vehicle: methylcellulose (MC) 114 % of control

O=S(=O)(F)c1cc(Cl)c(S)c(Cl)c1
inactive: [7] 100 % of control

CC(C)(C)NC(=O)C1C2C=CC(C2)C1C(=O)NC(C)(C)C (stereo unspecified)
inactive: endpoint: mean survival time, dose: 100.0 mg/kg/injection, schedule: Q04DX003 (ip), vehicle: saline with Tween-80 96 % of control | endpoint: mean survival time, dose: 200.0 mg/kg/injection, schedule: Q04DX003 (ip), vehicle: saline with Tween-80 91 % of control | endpoint: mean survival time, dose: 400.0 mg/kg/injection, schedule: Q04DX003 (ip), vehicle: saline with Tween-80 91 % of control

CCCCCC(C)(C)O
inactive: [4] 96 % of control | endpoint: mean survival time, dose: 100.0 mg/kg/injection, schedule: Q01DX009 (ip), vehicle: saline 97 % of control | endpoint: mean survival time, dose: 187.0 mg/kg/injection, schedule: Q01DX001 (ip), vehicle: saline 103 % of control | [5] 98 % of control | endpoint: mean survival time, dose: 200.0 mg/kg/injection, schedule: Q01DX009 (ip), vehicle: saline 101 % of control | endpoint: mean survival time, dose: 267.0 mg/kg/injection, schedule: Q01DX001 (ip), vehicle: saline 97 % of control | endpoint: mean survival time, dose: 600.0 mg/kg/injection, schedule: Q01DX001 (ip), vehicle: saline 92 % of control

CCOC(=O)C(Br)C(Br)c1cccc([N+](=O)[O-])c1 (stereo unspecified)
inactive: endpoint: mean survival time, dose: 100.0 mg/kg/injection, schedule: Q01DX009 (ip), vehicle: other 105 % of control | endpoint: mean survival time, dose: 100.0 mg/kg/injection, schedule: Q04DX003 (ip), vehicle: other 106 % of control | endpoint: mean survival time, dose: 200.0 mg/kg/injection, schedule: Q04DX003 (ip), vehicle: other 94 % of control | endpoint: mean survival time, dose: 400.0 mg/kg/injection, schedule: Q04DX003 (ip), vehicle: other 86 % of control

CC1(C)c2ccc([nH]2)C(C)(C)c2ccc([nH]2)C(C)(C)c2c[nH]cc2C(C)(C)c2ccc1[nH]2
inactive: [4] 102 % of control | [5] 94 % of control | [6] 97 % of control

CCOc1ccc(/C=C2\N=C(c3cccc(Cl)c3)OC2=O)cc1
inactive: endpoint: mean survival time, dose: 100.0 mg/kg/injection, schedule: Q04DX002 (ip), vehicle: saline with Tween-80 93 % of control | endpoint: mean survival time, dose: 200.0 mg/kg/injection, schedule: Q04DX002 (ip), vehicle: saline with Tween-80 93 % of control | endpoint: mean survival time, dose: 400.0 mg/kg/injection, schedule: Q04DX002 (ip), vehicle: saline with Tween-80 96 % of control

COC1C(N)C(O)OC(CO)C1O (stereo unspecified)
inactive: [4] 99 % of control | [5] 103 % of control | [6] 94 % of control

N=c1sc2ccccc2n1CC(=O)O
inactive: endpoint: mean survival time, dose: 25.0 mg/kg/injection, schedule: Q01DX001 (ip), vehicle: saline with Tween-80 92 % of control | endpoint: mean survival time, dose: 50.0 mg/kg/injection, schedule: Q01DX001 (ip), vehicle: saline with Tween-80 96 % of control | endpoint: mean survival time, dose: 100.0 mg/kg/injection, schedule: Q01DX001 (ip), vehicle: saline with Tween-80 94 % of control

Cc1ccc(S(=O)(=O)CC(O)(/C=C/c2ccccc2)c2ccccc2)cc1 (stereo unspecified)
inactive: endpoint: mean survival time, dose: 100.0 mg/kg/injection, schedule: Q01DX001 (ip), vehicle: acetone 98 % of control | endpoint: mean survival time, dose: 200.0 mg/kg/injection, schedule: Q01DX001 (ip), vehicle: acetone 93 % of control | endpoint: mean survival time, dose: 400.0 mg/kg/injection, schedule: Q01DX001 (ip), vehicle: acetone 89 % of control
